Results taken from PubChem BioAssay AID1918941 (Molecular Pharmacology Branch, DTP, NCI, 2023).

Tested on: SW 1271 complex spheroids, viability
Assay: Anticancer human tumor SW 1271 cell line growth inhibition [LSD1];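 also: spheroids exposed to agents for 7 days before luminescence read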;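 as to viability, T/C: 100% = DMSO vehicle control viability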
Details: for IC50: curve of first compound; for viability, T/C: stronger effect = lower value
Summary of the method: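 Multicellular complex spheroids of tumor cells with human endothelial cells (HUVEC) and mesenchymal stem cells; the LSD1 inhibitor iadademstat was combined with standard-of-care or investigational agents. Top concentration at or near clinical Cmax, half-log dilutions; final DMSO ≤0.25%.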

[1] = second compound 0.1 µM, first compound 0.000949 µM
[2] = second compound 0.1 µM, first compound 0.003 µM
[3] = second compound 0.1 µM, first compound 0.00949 µM
[4] = second compound 0.1 µM, first compound 0.03 µM
[5] = second compound 0.1 µM, first compound 0.0949 µM
[6] = second compound 0.1 µM, first compound 0.3 µM
[7] = second compound 0.316 µM, first compound 0.000949 µM
[8] = second compound 0.316 µM, first compound 0.003 µM
[9] = second compound 0.316 µM, first compound 0.00949 µM
[10] = second compound 0.316 µM, first compound 0.03 µM
[11] = second compound 0.316 µM, first compound 0.0949 µM
[12] = second compound 0.316 µM, first compound 0.3 µM
[13] = second compound 1 µM, first compound 0.000949 µM
[14] = second compound 1 µM, first compound 0.003 µM
[15] = second compound 1 µM, first compound 0.00949 µM
[16] = second compound 1 µM, first compound 0.03 µM
[17] = second compound 1 µM, first compound 0.0949 µM
[18] = second compound 1 µM, first compound 0.3 µM
[19] = second compound 3.16 µM, first compound 0.000949 µM
[20] = second compound 3.16 µM, first compound 0.003 µM
[21] = second compound 3.16 µM, first compound 0.00949 µM
[22] = second compound 3.16 µM, first compound 0.03 µM
[23] = second compound 3.16 µM, first compound 0.0949 µM
[24] = second compound 3.16 µM, first compound 0.3 µM
[25] = second compound 10 µM, first compound 0.000949 µM
[26] = second compound 10 µM, first compound 0.003 µM
[27] = second compound 10 µM, first compound 0.00949 µM
[28] = second compound 10 µM, first compound 0.03 µM
[29] = second compound 10 µM, first compound 0.0949 µM
[30] = second compound 10 µM, first compound 0.3 µM

Work on `CCc1c2c(nc3ccc(O)cc13)-c1cc3c(c(=O)n1C2)COC(=O)[C@]3(O)CC` + NC1CC1c1ccc(-c2cccc(O)c2)cc1 yielded an IC50 (second compound 0.1 µM) of less than 0.949 nM, an IC50 (second compound 0.316 µM) of 1.07 nM and an IC50 (second compound 1 µM) of less than 0.949 nM. For the same compound, the IC50 (second compound 3.16 µM) was less than 0.949 nM, the IC50 (second compound 10 µM) was 2.83 nM and the viability, T/C [1] was 48.1%. For the same compound, the viability, T/C [2] was 46%, the viability, T/C [3] was 26.5% and the viability, T/C [4] was 8.18%. The viability, T/C [5] was 8.27%, the viability, T/C [6] was 3.92% and the viability, T/C [7] was 50.5%. The viability, T/C [8] was 45.4%, the viability, T/C [9] was 25.9% and the viability, T/C [10] was 10.3%. For the same compound, the viability, T/C [11] was 8.68%, the viability, T/C [12] was 6.46% and the viability, T/C [13] was 49.4%. The viability, T/C [14] was 43%, the viability, T/C [15] was 27.4% and the viability, T/C [16] was 9.38%. For the same compound, the viability, T/C [17] was 5.98%, the viability, T/C [18] was 3.79% and the viability, T/C [19] was 48.2%. For the same compound, the viability, T/C [20] was 50.2%, the viability, T/C [21] was 26.7% and the viability, T/C [22] was 9.15%. It also gave a viability, T/C [23] of 5.19%, a viability, T/C [24] of 5.82% and a viability, T/C [25] of 56.6%. It also gave a viability, T/C [26] of 48.5%, a viability, T/C [27] of 30.1% and a viability, T/C [28] of 9.23%. It also gave a viability, T/C [29] of 7.28% and a viability, T/C [30] of 5.03%.

With `Nc1ccccc1NC(=O)c1ccc(CNC(=O)OCc2cccnc2)cc1` + NC1CC1c1ccc(-c2cccc(O)c2)cc1 the IC50 (second compound 0.1 µM) was 106 nM, the IC50 (second compound 0.316 µM) was 120 nM and the IC50 (second compound 1 µM) was 62.6 nM. For the same compound, the IC50 (second compound 3.16 µM) was 76.2 nM, the IC50 (second compound 10 µM) was 38.1 nM and the viability, T/C [3] was 85.6%. The viability, T/C [4] was 65.7%, the viability, T/C [5] was 56.7% and the viability, T/C [6] was 29.6%. The viability, T/C (second compound 0.1 µM, first compound 0.949 µM) was 8.17%, the viability, T/C (second compound 0.1 µM, first compound 3 µM) was 3.78% and the viability, T/C [9] was 89.2%. It also gave a viability, T/C [10] of 75.3%, a viability, T/C [11] of 57.3% and a viability, T/C [12] of 27.7%. The viability, T/C (second compound 0.316 µM, first compound 0.949 µM) was 6.71%, the viability, T/C (second compound 0.316 µM, first compound 3 µM) was 4.39% and the viability, T/C [15] was 94.3%. For the same compound, the viability, T/C [16] was 59.9%, the viability, T/C [17] was 46.6% and the viability, T/C [18] was 26.6%. For the same compound, the viability, T/C (second compound 1 µM, first compound 0.949 µM) was 7.28%, the viability, T/C (second compound 1 µM, first compound 3 µM) was 5.61% and the viability, T/C [21] was 81.3%. For the same compound, the viability, T/C [22] was 69.7%, the viability, T/C [23] was 40.5% and the viability, T/C [24] was 32.4%. It also gave a viability, T/C (second compound 3.16 µM, first compound 0.949 µM) of 10%, a viability, T/C (second compound 3.16 µM, first compound 3 µM) of 4.69% and a viability, T/C [27] of 66.7%. For the same compound, the viability, T/C [28] was 51.9%, the viability, T/C [29] was 38.6% and the viability, T/C [30] was 29.4%. For the same compound, the viability, T/C (second compound 10 µM, first compound 0.949 µM) was 11.7% and the viability, T/C (second compound 10 µM, first compound 3 µM) was 6.45%.

In the case of `Nc1ccn(C2OC(CO)C(O)C2(F)F)c(=O)n1` (stereo not given) + NC1CC1c1ccc(-c2cccc(O)c2)cc1, the IC50 (second compound 0.1 µM) is reported as greater than 300 nM, the IC50 (second compound 0.316 µM) is reported as greater than 300 nM and the IC50 (second compound 1 µM) is reported as greater than 300 nM. For the same compound, the IC50 (second compound 3.16 µM) was greater than 300 nM, the IC50 (second compound 10 µM) was greater than 300 nM and the viability, T/C [1] was 76.7%. The viability, T/C [2] was 68.7%, the viability, T/C [3] was 63.3% and the viability, T/C [4] was 54%. For the same compound, the viability, T/C [5] was 64.9%, the viability, T/C [6] was 58% and the viability, T/C [7] was 65.9%. It also gave a viability, T/C [8] of 54.7%, a viability, T/C [9] of 55.7% and a viability, T/C [10] of 57.4%. The viability, T/C [11] was 54.3%, the viability, T/C [12] was 64.2% and the viability, T/C [13] was 62.1%. The viability, T/C [14] was 64.2%, the viability, T/C [15] was 57.5% and the viability, T/C [16] was 55.5%. It also gave a viability, T/C [17] of 58.5%, a viability, T/C [18] of 61.3% and a viability, T/C [19] of 65.3%. For the same compound, the viability, T/C [20] was 58.3%, the viability, T/C [21] was 51.4% and the viability, T/C [22] was 52%. The viability, T/C [23] was 56.2%, the viability, T/C [24] was 47.3% and the viability, T/C [25] was 62.1%. For the same compound, the viability, T/C [26] was 57.7%, the viability, T/C [27] was 51.1% and the viability, T/C [28] was 60.1%. The viability, T/C [29] was 48.5% and the viability, T/C [30] was 51.2%.

For `O=C(c1cc(Cc2n[nH]c(=O)c3ccccc23)ccc1F)N1CCN(C(=O)C2CC2)CC1` + NC1CC1c1ccc(-c2cccc(O)c2)cc1, the IC50 (second compound 0.1 µM) was 8950 nM, the IC50 (second compound 0.316 µM) was 5660 nM and the IC50 (second compound 1 µM) was 6290 nM. The IC50 (second compound 3.16 µM) was 3740 nM, the IC50 (second compound 10 µM) was greater than 10000 nM and the viability, T/C (second compound 0.1 µM, first compound 0.0316 µM) was 78.1%. For the same compound, the viability, T/C (second compound 0.1 µM, first compound 0.1 µM) was 87%, the viability, T/C (second compound 0.1 µM, first compound 0.316 µM) was 92.7% and the viability, T/C (second compound 0.1 µM, first compound 1 µM) was 72.9%. The viability, T/C (second compound 0.1 µM, first compound 3.16 µM) was 61.4%, the viability, T/C (second compound 0.1 µM, first compound 10 µM) was 48.2% and the viability, T/C (second compound 0.316 µM, first compound 0.0316 µM) was 84.5%. For the same compound, the viability, T/C (second compound 0.316 µM, first compound 0.1 µM) was 76.1%, the viability, T/C (second compound 0.316 µM, first compound 0.316 µM) was 78% and the viability, T/C (second compound 0.316 µM, first compound 1 µM) was 67.5%. It also gave a viability, T/C (second compound 0.316 µM, first compound 3.16 µM) of 54.9%, a viability, T/C (second compound 0.316 µM, first compound 10 µM) of 44.1% and a viability, T/C (second compound 1 µM, first compound 0.0316 µM) of 81.4%. It also gave a viability, T/C (second compound 1 µM, first compound 0.1 µM) of 74.4%, a viability, T/C (second compound 1 µM, first compound 0.316 µM) of 70% and a viability, T/C (second compound 1 µM, first compound 1 µM) of 65.1%. It also gave a viability, T/C (second compound 1 µM, first compound 3.16 µM) of 56.8%, a viability, T/C (second compound 1 µM, first compound 10 µM) of 45.4% and a viability, T/C (second compound 3.16 µM, first compound 0.0316 µM) of 72.1%. It also gave a viability, T/C (second compound 3.16 µM, first compound 0.1 µM) of 63.4%, a viability, T/C (second compound 3.16 µM, first compound 0.316 µM) of 68.3% and a viability, T/C (second compound 3.16 µM, first compound 1 µM) of 58.4%. The viability, T/C (second compound 3.16 µM, first compound 3.16 µM) was 52.9%, the viability, T/C (second compound 3.16 µM, first compound 10 µM) was 38.9% and the viability, T/C (second compound 10 µM, first compound 0.0316 µM) was 66.9%. For the same compound, the viability, T/C (second compound 10 µM, first compound 0.1 µM) was 66.8%, the viability, T/C (second compound 10 µM, first compound 0.316 µM) was 63% and the viability, T/C (second compound 10 µM, first compound 1 µM) was 57.9%. The viability, T/C (second compound 10 µM, first compound 3.16 µM) was 52.7% and the viability, T/C (second compound 10 µM, first compound 10 µM) was 51.3%.
